# Laboratory results published in patent US20260345621A1, “GABAA RECEPTOR MODULATORS AND USES THEREOF” (Engrail Therapeutics, Inc., priority 2022, published 2026).
# pEC50: −log10 of the molar value. Entries after “also recorded” stand apart in the source; their conditions may differ.
# Experiments:
# alertness/sedation = assay: MOAA/S (Modified Observer's Assessment Alertness/Sedation); type: in vivo, human (healthy volunteers)
# Protocol: (§1) A clinical study was developed to evaluate safety, tolerability, pharmacokinetics, and pharmacodynamics of Compound 1 at plasma steady-state in 40 healthy human volunteers. Compound 1 (provided as Compound 1 phosphate) was administered to participants as multiple ascending doses of 0.5 mg (N=6), 1.0 mg (N=6), 1.5 mg (N=6), 2.0 mg (N=6), or 5.0 mg (N=6) once daily (QD) for 12 days.
# Safety and tolerability of Compound 1 were assessed through listings and summaries by Compound 1 dose versus placebo (observed and change from baseline where applicable) for the following measures: treatment-emergent adverse events (TEAEs), clinical laboratory evaluation, vital signs, electrocardiogram, physical examination, pregnancy test, C-SSRS, and MOAA/S (Modified Observer's Assessment Alertness/Sedation). Continuous safety data were summarized with descriptive statistics (n, arithmetic mean, standard deviation (SD), median, minimum, and maximum) by dose level. Categorical safety data were summarized with incidence counts and percentages by dose level.
# No clear difference from placebo in sedation across ascending Cohorts according to objective MOAA/S (Modified Observer's Assessment Alertness/Sedation) scoring was observed. A decrease in the MOAA/S score for alertness/sedation indicates impaired participant alertness and increased sedation as objectively determined by a clinician. […] For Compound 1 5.0 mg, a MOAA/S score of 2 (“Responds only after mild prodding or shaking”) was assessed for 1 participant. For the other participants in the Compound 1 5.0 mg Cohort and all other Cohorts, MOAA/S scores were above 3 indicating no difference from placebo in sedation across ascending Cohorts.
# CNS function (NEUROCART) = type: in vivo, human (healthy volunteers)
# Protocol: (§2) A clinical study was developed to evaluate safety, tolerability, pharmacokinetics, and pharmacodynamics of Compound 1 at plasma steady-state in 40 healthy human volunteers. […].
# (§3) Pharmacodynamic analyses included the NEUROCART® assessments, cognitive assessments Visual Verbal Learning Task (VVLT), and quantitative electroencephalography (qEEG). All PD analyses were based on the PD Analysis Set. For all PD endpoints, the baseline was calculated as average of the Day −1 measurements.
# (§4) NEUROCART®, VVLT, and qEEG assessments were listed and summarized (absolute and change from baseline) using descriptive statistics at baseline and at each post-baseline time point. To establish whether significant treatment effects could be detected on the repeatedly measured NEUROCART® parameters, each parameter was analyzed with a mixed model analysis of covariance (ANCOVA) with treatment, time, and treatment by time as fixed factors, participant as a random factor, and the (average) baseline measurement as a covariate.
# [1] = tested on: memory (Visual Verbal Learning Task); type: in vivo, human (healthy volunteers); conditions: oral QD 12 days; dose and day in value
# Protocol: as §2, §3, §4
# EEG power = assay: Quantitative electroencephalography (qEEG); type: in vivo, human (healthy volunteers)
# Protocol: as §1, §3, §4
# [2] = Stability of solutions/suspensions at room temperature; type: physicochemical
# From the text: The dosage forms provided herein may be prepared and placed in a container for storage at ambient or elevated temperature. […] This is beneficial because transportation of commercially viable dosage forms may benefit from stability at temperatures greater than those requiring refrigeration or sub-freezing environments during transportation and storage at the site of use.
# [3] = tested on: anxiety (elevated plus maze); assay: Elevated plus maze (EPM)
# [4] = biological target: human GABAA receptor α1/β3/γ2 (Homo sapiens, UniProt P14867+P18507); assay: SyncroPatch platform, PAM mode, GABAA α1/β3/γ2
# [5] = biological target: human GABAA receptor α3/β3/γ2 (Homo sapiens, UniProt P18507+P34903); assay: SyncroPatch platform, PAM mode, GABAA α3/β3/γ2
# [6] = oral QD 12 days, dose and day in value
# [7] = participants receiving Compound 1
# Chain of human GABAA receptor α1/β3/γ2 (P14867 28-456): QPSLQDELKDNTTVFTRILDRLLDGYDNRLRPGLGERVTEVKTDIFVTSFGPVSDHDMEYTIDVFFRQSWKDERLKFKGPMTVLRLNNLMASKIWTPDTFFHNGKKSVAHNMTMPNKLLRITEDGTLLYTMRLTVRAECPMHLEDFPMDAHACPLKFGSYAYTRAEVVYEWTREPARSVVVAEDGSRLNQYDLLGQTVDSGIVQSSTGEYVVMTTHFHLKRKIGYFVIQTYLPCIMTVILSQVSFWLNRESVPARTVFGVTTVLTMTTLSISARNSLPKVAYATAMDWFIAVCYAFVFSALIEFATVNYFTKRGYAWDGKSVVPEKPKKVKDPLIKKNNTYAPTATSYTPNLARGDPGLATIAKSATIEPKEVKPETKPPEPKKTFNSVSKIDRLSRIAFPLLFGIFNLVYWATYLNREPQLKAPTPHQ
# Chain of human GABAA receptor α1/β3/γ2 (P18507 40-475): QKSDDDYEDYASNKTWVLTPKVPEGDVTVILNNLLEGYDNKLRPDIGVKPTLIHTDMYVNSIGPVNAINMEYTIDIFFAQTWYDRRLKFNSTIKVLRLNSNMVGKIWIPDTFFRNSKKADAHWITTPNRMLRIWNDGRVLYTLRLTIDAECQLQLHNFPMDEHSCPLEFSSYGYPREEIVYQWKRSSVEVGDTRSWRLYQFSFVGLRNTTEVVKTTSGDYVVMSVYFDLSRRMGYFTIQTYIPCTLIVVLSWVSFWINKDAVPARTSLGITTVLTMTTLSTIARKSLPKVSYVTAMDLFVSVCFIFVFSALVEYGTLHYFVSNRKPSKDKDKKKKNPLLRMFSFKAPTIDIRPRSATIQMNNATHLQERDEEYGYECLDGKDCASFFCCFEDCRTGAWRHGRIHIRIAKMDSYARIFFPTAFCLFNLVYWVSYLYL
# Chain of human GABAA receptor α1/β3/γ2 (P28472 26-473 partner): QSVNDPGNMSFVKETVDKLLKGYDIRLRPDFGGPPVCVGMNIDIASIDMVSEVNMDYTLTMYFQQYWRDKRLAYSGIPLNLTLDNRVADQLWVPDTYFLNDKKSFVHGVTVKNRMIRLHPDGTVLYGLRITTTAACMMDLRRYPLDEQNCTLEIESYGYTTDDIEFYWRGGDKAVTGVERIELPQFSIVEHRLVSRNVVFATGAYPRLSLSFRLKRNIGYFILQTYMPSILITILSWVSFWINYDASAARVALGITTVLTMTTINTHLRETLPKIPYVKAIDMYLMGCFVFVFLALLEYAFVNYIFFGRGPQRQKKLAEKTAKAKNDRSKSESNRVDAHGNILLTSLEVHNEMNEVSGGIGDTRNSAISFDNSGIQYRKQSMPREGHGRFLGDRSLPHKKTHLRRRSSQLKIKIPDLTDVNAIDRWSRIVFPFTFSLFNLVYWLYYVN
# Chain of human GABAA receptor α3/β3/γ2 (P34903 29-492): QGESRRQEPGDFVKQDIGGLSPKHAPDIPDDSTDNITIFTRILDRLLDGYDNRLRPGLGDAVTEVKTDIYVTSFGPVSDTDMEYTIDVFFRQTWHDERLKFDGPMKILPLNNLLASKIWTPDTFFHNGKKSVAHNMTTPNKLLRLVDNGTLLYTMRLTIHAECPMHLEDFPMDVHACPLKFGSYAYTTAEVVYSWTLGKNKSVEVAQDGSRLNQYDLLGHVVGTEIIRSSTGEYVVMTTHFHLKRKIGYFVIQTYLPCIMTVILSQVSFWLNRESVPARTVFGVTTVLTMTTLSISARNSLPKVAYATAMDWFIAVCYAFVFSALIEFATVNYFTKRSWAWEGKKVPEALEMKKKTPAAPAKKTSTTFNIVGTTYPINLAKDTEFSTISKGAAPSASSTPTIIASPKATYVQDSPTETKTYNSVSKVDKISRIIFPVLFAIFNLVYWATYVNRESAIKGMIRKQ
# Chain of human GABAA receptor α3/β3/γ2 (P18507 40-475): as the sequence (P18507 40-475) above
# Chain of human GABAA receptor α3/β3/γ2 (P28472 26-473 partner): as the sequence (P28472 26-473 partner) above
smiles,measurement,setting,value
"CC(C)(O)c1cnn2c(-c3ccc(F)c(-c4c(F)cccc4C#N)c3)cnc2n1 [Compound 1, 2′,6-difluoro-5′-(3-(2-hydroxypropan-2-yl)imidazo[1,2-b][1,2,4]triazin-7-yl)-[1,1′-biphenyl]-2-carbonitrile]",MOAA/S score,"alertness/sedation; 5.0 mg, 1 participant",2
same,sedation versus placebo by MOAA/S,alertness/sedation; 0.5-5.0 mg oral QD 12 days,little to no impairment of alertness and no frank sedation; also recorded: did not demonstrate a difference from placebo in sedation
same,MOAA/S score,alertness/sedation; other participants at 5.0 mg and all other Cohorts,above 3
same,"consistency of effects on SPV, body sway, VAS perception and feeling high",CNS function (NEUROCART); 1.5 mg Cohort,less consistent effects
same,VAS mood or VAS calmness,"CNS function (NEUROCART); oral QD 12 days, any dose, Day 1 or Day 12",Did not affect VAS mood or VAS calmness at any dose on either Day 1 or Day 12
same,VAS external perception and VAS internal perception (Bowdle),CNS function (NEUROCART); [6],"remained unaffected at 1.0 mg, 2.0 mg, and 5.0 mg but significantly increased at 1.5 mg on Day 1 and Day 12"
same,VAS feeling high (Bowdle),CNS function (NEUROCART); [6],"significantly increased at 0.5 mg on Day 1 and Day 12, and at 1.5 mg on Day 12 with no apparent dose-related effect"
same,body sway,CNS function (NEUROCART); [6],significantly increased body sway at 5.0 mg on Day 1; also recorded: Significantly increased body sway at the highest dose level of 5.0 mg on Day 1 but not on Day 12; also recorded: significantly increased body sway at 5.0 mg acutely
same,left pupil/iris ratio,CNS function (NEUROCART); [6],"Significantly reduced left pupil/iris ratio at 1.0 mg, 1.5 mg, and 5.0 mg on Day 1 but not on Day 12"
same,saccadic reaction time,CNS function (NEUROCART); [6],"Significantly increased saccadic reaction time only at the highest dose level of 5.0 mg on Day 1, but not on Day 12"
same,smooth pursuit eye movements,CNS function (NEUROCART); [6],"Significantly decreased smooth pursuit eye movements at 0.5 mg, 1.5 mg, and 5.0 mg on Day 1 but not on Day 12"
same,delayed word recognition,[1],"Significantly decreased delayed word recognition but not immediate recall or delayed recall at 2.0 mg on Day 12, but not on Day 1"
same,immediate recall and delayed recall/recognition,[1],"Significantly decreased immediate recall and decreased delayed recall/recognition at 5.0 mg on Day 1, but not on Day 12"
same,reaction time for delayed word recognition,[1],"Significantly increased reaction time for delayed word recognition at 1.5 mg on Day 1, but not on Day 12; also recorded: inconsistent effects on reaction time for delayed word recognition up to 1.5 mg"
same,EEG gamma-power Pz-O2 (eyes open),EEG power; any dose level,No treatment effect on Pz-O2 (eyes open) for any dose level
same,EEG beta-power Pz-O1 or Pz-O2 (eyes open and closed),"EEG power; any dose, Day 1 or Day 12",No treatment effect on Pz-O1 or Pz-O2 (eyes open and eyes dosed) at any dose on Day 1 or Day 12
same,EEG alpha-power Fz-Cz (eyes closed),EEG power; dose and day in value,"Significant decrease in Fz-Cz (eyes dosed) at 1.5 mg, 2.0 mg, and 5.0 mg on Day 12"
same,EEG alpha-power Fz-Cz (eyes open),EEG power; dose and day in value,"Significant decrease in Fz-Cz (eyes open) at 1.5 mg on Day 1 and at 1.5 mg, 2.0 mg, and 5.0 mg on Day 12"
same,EEG alpha-power Pz-O1 (eyes closed),EEG power; dose and day in value,"Significant decrease in Pz-O1 (eyes closed) at 1.5 mg on Day 1 and at 1.5 mg, 2.0 mg, and 5.0 mg on Day 12"
same,EEG alpha-power Pz-O1 (eyes open),EEG power; dose and day in value,"Significant decrease in Pz-O1 (eyes open) at 1.5 mg, 2.0 mg, and 5.0 mg on Day 12"
same,EEG alpha-power Pz-O2 (eyes closed),EEG power; dose and day in value,"Significant decrease in Pz-O2 (eyes dosed) at 1.5 mg, 2.0 mg, and 5.0 mg on Day 12"
same,EEG alpha-power Pz-O2 (eyes open),EEG power; dose and day in value,"Significant decrease in Pz-O2 (eyes open) at 1.5 mg, 2.0 mg, and 5.0 mg on Day 12"
same,EEG beta-power Fz-Cz (eyes closed),EEG power; dose and day in value,Significant increase in Fz-Cz (eyes closed) at 2.0 mg and 5.0 mg on Day 1 but at none of the doses on Day 12
same,EEG beta-power Fz-Cz (eyes open),EEG power; dose and day in value,"Significant increase in Fz-Cz (eyes open) at 2.0 mg and 5.0 mg on Day 1 and at 0.5 mg, 2.0 mg, and 5.0 mg on Day 12"
same,EEG delta-power Fz-Cz (eyes closed),EEG power; dose and day in value,Significant decrease in Fz-Cz (eyes closed) at all dose levels on Day 12
same,EEG delta-power Fz-Cz (eyes open),EEG power; dose and day in value,Significant decrease in Fz-Cz (eyes open) only at 1.0 mg on Day 12
same,EEG delta-power Pz-O1 (eyes closed),EEG power; dose and day in value,"Significant decrease in Pz-O1 (eyes closed) at 1.0 mg, 1.5 mg, 2.0 mg, and 5.0 mg on Day 12"
same,EEG delta-power Pz-O1 and Pz-O2 (eyes open),EEG power; dose and day in value,"Significant decrease in Pz-O1 and Pz-O2 (eyes open) at 1.5 mg, 2.0 mg, and 5.0 mg on Day 12"
same,EEG delta-power Pz-O2 (eyes closed),EEG power; dose and day in value,Significant decrease in Pz-O2 (eyes closed) at all dose levels on Day 12
same,EEG gamma-power Fz-Cz (eyes closed and eyes open),EEG power; dose and day in value,Significant increase in Fz-Cz (eyes closed and eyes open) at 2.0 mg on Day 1 and at 2.0 mg and 5.0 mg on Day 12
same,EEG gamma-power Pz-O1 (eyes closed and eyes open),EEG power; dose and day in value,"Significant decrease in Pz-O1 (eyes dosed and eyes open) at 1.5 mg, 2.0 mg, and 5.0 mg on Day 1"
same,EEG gamma-power Pz-O2 (eyes closed),EEG power; dose and day in value,No treatment effect on Pz-O2 (eyes closed) for any dose level except for 5.0 mg on Day 12
same,EEG theta-power Fz-Cz (eyes closed and eyes open),EEG power; dose and day in value,"Significant decrease in Fz-Cz (eyes closed and eyes open) at 1.0 mg, 1.5 mg, 2.0 mg, and 5.0 mg on Day 12"
same,EEG theta-power Pz-O1 and Pz-O2 (eyes closed and eyes open),EEG power; dose and day in value,"Significant decrease in Pz-O1 and Pz-O2 (eyes closed and eyes open) at 1.5 mg, 2.0 mg, and 5.0 mg on Day 12"
same,most consistent effects on qEEG,"EEG power; doses >1.5 mg, Day 12","decreased alpha- and theta-power on Day 12 that were suggestive of dose- or concentration-dependence and target engagement, but the increased beta-power on Day 12 did not suggest dose- or concentration-dependence; also recorded: decreased alpha- and theta-power, and increased beta-power"
same,stability of standard solutions,[2]; 20 μg/mL,6 days
same,stability of samples in 0.5% TYLOSE MH 300,[2]; 0.12 to 7.2 mg/mL,8 days
same,moderate somnolence,2.0 mg and 5.0 mg,Two TEAEs of moderate somnolence
same,moderate balance disorder,5.0 mg,1 TEAE of moderate balance disorder
same,concomitant medications or physical examination findings,0.5-5.0 mg oral QD 12 days,No consistent differences
same,mean QTcF increase,0.5-5.0 mg oral QD 12 days,No clinically relevant increase
same,severe TEAEs or SAEs,0.5-5.0 mg oral QD 12 days,No severe TEAEs or serious adverse events (SAEs) occurred
same,suicidal ideation or behaviors (C-SSRS),0.5-5.0 mg oral QD 12 days,No positive responses
same,participants with TEAEs of moderate severity,5/40 participants,12.5%
same,participants with TEAEs of mild severity,34/40 participants,85.0%
same,number of TEAEs of moderate severity,in 5/40 participants,6
same,dizziness,[7],20.0%
same,postural dizziness,[7],30.0%
same,incidence of somnolence versus placebo,pooled placebo,approximately twice as high as the placebo-treated participants
same,"anxiolytic effect, chronic dosing","[3]; once daily for fourteen days, tested 1 hr after last dose",anxiolytic-like in rodents after acute and sub-chronic (14 days) dosing without any loss of effect
same,effect compared with reference anxiolytic chlordiazepoxide,[3]; oral,"equivalent to what was demonstrated by the reference anxiolytic compound, chlordiazepoxide"
same,distance traveled in the open arms,"[3]; oral, 0.1, 0.3 and 1 mg/kg",increased distance traveled in the open arms
same,Cl- flux / activity at α1 subtype,[4],blocking α1; also recorded: did not drive Cl-flux; also recorded: does not potentiate the α1 GABAA receptor subtype
same,pEC50,[5],8.61
same,Emax,[5],113%
